Literature values in US4039519A, “Broad spectrum antibiotics and method” (Chimie & Biologie, priority 1975, dated 1977).

Conditions: oral administration; cited from earlier work

**Q.** With colistine as the substance, how does the “passage of the gastro-intestinal barrier (known)” value read?
**A.** Its value is “cannot pass the gastro-intestinal barrier”.
